{"source": "patent US9604947B2", "about": "“Substituted 5-imino-1,2,4-thiadiazoles that can be used to treat neurodegenerative diseases” (CONSEJO SUPERIOR DE INVESTIGACIONES CIENTIFICAS (CSIC), priority 2009, dated 2017)", "key": {"in vitro": {"test": "in vitro", "conditions": "PAMPA", "experimental": "Ten commercial reference drugs, phosphate buffer saline solution at pH 7.4 (PBS), DMSO and dodecane were purchased from Sigma, Acros organics, Aldrich and Fluka. […] Filter PDVF membrane units (diameter 30 mm, pore size 0.45 μm) from Symta were used to filtered the samples. A 96-well plate UV reader (Thermoscientific, Multiskan spectrum) was used for the UV measurements. […] These solutions were filtered. The acceptor 96-well microplate was filled with 180 μL of PBS:DMSO (95:5). The donor 96-well plate was coated with 4 μL of porcine brain lipid in dodecane (20 mg mL^−1) and after 5 minutes, 180 μL of each compound solution was added. 1-2 mg of every compound to be determined their ability to pass the BBB were dissolved in 250 μL of DMSO and 4750 μL of PBS pH 7.4 buffer, filtered and then added to the donor 96-well plate. Then the donor plate was carefully put on the acceptor plate to form a “sandwich”, which was left undisturbed for 4 h at 25° C.\nDuring this time the compounds diffused from the donor plate through the brain lipid membrane into the acceptor plate. After incubation, the donor plate was removed. The concentration of compounds and commercial drugs in the acceptor and the donor wells was determined by UV plate reader. Every sample was analyzed from three to five wavelengths, in 3 wells and in at least three independent runs. […] 11 quality control compounds (previously mentioned) of known BBB permeability were included in each experiment to validate the analysis set."}, "PDE7A1": {"molecular_target": "T1, PDE7A1 (Homo sapiens, UniProt Q13946)", "T1 construct": "purchased Calbiochem 524751", "T1 sequence (Q13946 whole entry)": "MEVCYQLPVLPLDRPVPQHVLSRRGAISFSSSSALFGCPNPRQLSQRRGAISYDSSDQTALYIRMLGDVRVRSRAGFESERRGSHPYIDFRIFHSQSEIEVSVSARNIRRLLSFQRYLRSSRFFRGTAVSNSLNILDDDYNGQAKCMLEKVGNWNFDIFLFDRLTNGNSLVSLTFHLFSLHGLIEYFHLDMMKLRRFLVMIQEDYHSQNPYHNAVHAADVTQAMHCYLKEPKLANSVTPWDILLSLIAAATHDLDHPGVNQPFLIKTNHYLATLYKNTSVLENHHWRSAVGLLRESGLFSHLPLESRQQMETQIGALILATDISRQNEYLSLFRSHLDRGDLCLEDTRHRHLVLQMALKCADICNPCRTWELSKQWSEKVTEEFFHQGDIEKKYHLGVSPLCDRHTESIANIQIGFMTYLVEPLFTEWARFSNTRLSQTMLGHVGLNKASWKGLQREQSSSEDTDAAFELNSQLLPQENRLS", "test": "Determination of PDE7 inhibition (SPA, [3H]cAMP)", "format": "biochemical", "conditions": "1,2,4-thiadiazoles-5-imino substituted as hydrobromides; read-out: IC50 (PDE7A)", "experimental": "PDE-7 inhibition was performed with a commercial kit for the determination of phosphodiesterase activity (GE Healthcare Life Sciences, cat#TRKQ7090).\nThe compounds to be evaluated were incubated (in concentrations between 0.1 nM and 100 μM) in presence of 0.02 U/well of PDE7A1 (Calbiochem cat#524751) and 0.05 μCi of [^3H] cAMP, for 20 min at 30° C. in the assay buffer of kit (total volume=100 μl).\nAfter this time, 50 μl of a suspension of 20 mg/ml microspheres of SPA of Ytrium silicate were added and was maintained under stirring at room temperature for 60 min. Finally, the plate was settled for 20 min and radioactivity was detected in a Microbeta Trilux reader.\nIn every assay there were included two points without PDE7A1 (blank) and two points with PDE7A1 without inhibitors (control).\nData Analysis: All the compounds were evaluated firstly at the concentration of 10 μM and the percentage of PDE7A1 inhibition was calculated, according to the following formula (cpm=counts per minute): % Inhibition=((cpm control−cpm sample)×100)/(cpm control−cpm blank assay).\nFor those compounds with % inhibition values above 45% it was calculated its inhibitory potency (IC50) building the dose-response curve.\nThe data were adjusted with the software Prism v 2.1 (GraphPad Software) using the non lineal fitting."}}}
{"compound": "Br.COc1ccc(-c2nc(=NCCO)sn2-c2ccccc2)cc1", "note": "[VP-1.40, 5-(2-Hydroxyethylimino)-3-(4-methoxyphenyl)-2-phenyl-2,5-dihydro-1,2,4-thiadiazole hydrobromide]", "values": [{"measurement": "Prediction (predictive penetration in the CNS)", "setting": "in vitro", "result": "CNS+"}, {"measurement": "Papp at 4 h", "setting": "in vitro; pH 7.4", "result": "13.7 ± 0.8", "unit": "×10⁻⁶ cm/s"}, {"measurement": "IC50", "setting": "PDE7A1", "result": 1.5, "unit": "µM"}]}
